The record followed here is patent US4734418A, “Quinazoline compounds and antihypertensives” (priority 1984, dated 1988).

Like-named read-outs stand apart in the source and are kept apart here.

The data set concerns Spontaneously Hypertensive Rats. The experiment in a line: Test 1: antihypertensive effects (systolic tail artery blood pressure) and heart rate in spontaneously hypertensive rats, oral. Type of data set: in vivo, rat (male, SHR). To be noted: SHR, oral 1 mg/Kg; for change in vivo at 1 mg/kg: Rattus norvegicus; for Change (%) in heart rate: maximum value. Here is the method: The antihypertensive effects of the certain compounds of this invention were studied in the following manner.
Among male, spontaneously hypertensive rats (SHRs) of 20 weeks of age or older and 350-430 g heavy all of which had developed hypertension, those having systolic blood pressures of 180 mmHg or higher were used in groups, each of which was constituted of 3-4 of the rats. […] Besides, heart rates were also measured simultaneously. The compounds were each dissolved or suspended in a 0.5% methylcellulose solution and then administered orally.
*All administered orally at a dosage of 1 mg/Kg except for the compounds
**Each percent change in heart rate is indicated by the corresponding

The mark [1] stands for this setting: 1 hour, read-out: Antihypertensive effects, change (%) in blood pressure, 1 hour later.
Setting [2] is: 3 hours, read-out: Antihypertensive effects, change (%) in blood pressure, 3 hours later.
[3] abbreviates: 6 hours, read-out: Antihypertensive effects, change (%) in blood pressure, 6 hours later.
[4] abbreviates: 24 hours, read-out: Antihypertensive effects, change (%) in blood pressure, 24 hours later.

On to `COc1cc2nc(N3CCN(c4ncc(C(=O)N5CCCC5)c(C)n4)CC3)nc(N)c2cc1OC` [Example 49], for which the “Change (%) in heart rate” value is recorded as “+6.3%”. Besides, the change in vivo at 1 mg/kg under setting [1] was -4.5%. The change in vivo at 1 mg/kg under setting [2] was -10.6%. The change in vivo at 1 mg/kg under setting [3] was -13.1%. For the same compound, the change in vivo at 1 mg/kg under setting [4] is -7.5%.
For `COc1cc2nc(N3CCN(c4ncc5c(=O)n(-c6ccccc6)ccc5n4)CC3)nc(N)c2cc1OC` [Example 9] the same measures were “+4.3%”, -1.5%, -8.1%, -9.6% and -5.1%.
With `COc1cc2nc(N3CCN(c4nc(N)c5cc(OC)c(OC)cc5n4)CC3)nc(N)c2cc1OC` [Example 72], the “Change (%) in heart rate” value is given as “+8.6%”. Further, the change in vivo at 1 mg/kg under setting [1] is 2.9%. In addition, the change in vivo at 1 mg/kg under setting [2] is -2%. Also, the change in vivo at 1 mg/kg under setting [3] is -2.5%. Further, under setting [4], the change in vivo at 1 mg/kg was -2.9%.
For `CCN(CC)C(=O)c1cnc(N2CCN(c3nc(N)c4cc(OC)c(OC)cc4n3)CC2)nc1NC` [Example 77] the same measures were “+25.1%”, -31%, -32.9%, -36.2% and -13.8%.
Turning to `CCCCCCCN1Cc2nc(N3CCN(c4nc(N)c5cc(OC)c(OC)cc5n4)CC3)ncc2C1=O` [Example 90], the “Change (%) in heart rate” value is recorded as “+8.7%”. Moreover, under setting [1], the change in vivo at 1 mg/kg was 2.3%. Under setting [2], the change in vivo at 1 mg/kg was -6.8%. Besides, the change in vivo at 1 mg/kg under setting [3] is -15.5%. Further, the change in vivo at 1 mg/kg under setting [4] is -2.7%.
For `CCn1ccc(=O)c2cnc(N3CCN(c4nc(N)c5cc(OC)c(OC)cc5n4)CC3)nc21` [Example 20] the same measures were “+5.7%”, 1.5%, -12.5%, -12% and -2%.
For `CCOC(=O)c1cnc(N2CCN(c3nc(N)c4cc(OC)c(OC)cc4n3)CC2)nc1N(CC)CC` [Example 58] the same measures were “+9.8%”, -7.4%, -17.6%, -22.5% and -9.8%.
With `COc1cc2nc(N3CCN(c4ncc5c(=O)n(C)[nH]c5n4)CC3)nc(N)c2cc1OC.Cl` [Example 83, 4-Amino-6,7-dimethoxy-2-(4-(2-methyl-3-oxo-2,3-dihydro-1H-pyrazolo[3,4-d]pyrimidine-6-yl)piperazino)quinazoline hydrochloride], the “Change (%) in heart rate” value is listed as “+5.6%”. The change in vivo at 1 mg/kg under setting [1] is -3.9%. The change in vivo at 1 mg/kg under setting [2] was -4.4%. Moreover, the change in vivo at 1 mg/kg under setting [3] was -5.3%. In addition, the change in vivo at 1 mg/kg under setting [4] was -0.5%.
For `CCOC(=O)c1cnc(N2CCN(c3nc(N)c4cc(OC)c(OC)cc4n3)CC2)nc1N(C)C` [Example 56] the same measures were “+13.5%”, -21.4%, -22.4%, -22.9% and -4.5%.
For `COc1cc2nc(N3CCN(c4ncc5c(n4)CN(CCN(C)C)C5=O)CC3)nc(N)c2cc1OC` [Example 86] the same measures were “+7.1%”, 0.5%, 0%, -6.4% and -0.5%.
For `COc1cc2nc(N3CCN(C4=NCc5c(ccn(C)c5=O)N4)CC3)nc(N)c2cc1OC` [Example 34] the same measures were “+2.3%”, 0.5%, -9.1%, -13.9% and -7.2%.
